Results: patent publication US8952024B2, “Herbicidal pyrimidone derivatives” (E I du Pont de Nemours and Company, priority 2009, dated 2015)

Assays:
Assay type in all cases: in vivo
[1] = test system: winter barley (Hordeum vulgare); experiment: Test B postemergence plant response
Method in brief: (§1)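 Plants grown in peat/vermiculite medium were sprayed postemergence at 2–18 cm height (1- to 4-leaf stage). After 13–15 days in the greenhouse, response was rated visually against untreated controls on a 0–100 scale (0 no effect, 100 complete control).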

[2] = test system: canarygrass (Phalaris minor); experiment: Test B postemergence plant response
Method in brief: as §1

[3] = test system: chickweed (Stellaria media); experiment: Test B postemergence plant response
Method in brief: as §1

[4] = test system: windgrass (Apera spica-venti); experiment: Test B postemergence plant response
Method in brief: as §1

[5] = test system: nightshade (eastern black nightshade, Solanum ptycanthum); experiment: Test B pre-/postemergence plant response; settings: Preemergence
Method in brief: (§2)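 Seeds were sown in loam soil/sand blend and treated preemergence with compound in non-phytotoxic solvent mixture containing surfactant; postemergence sprays, same formulation, went onto plants 2 to 18 cm (1- to 4-leaf stage) in peat-based planting medium. Greenhouse 13 to 15 days, then visual rating versus untreated controls, 0 (no effect) to 100 (complete control).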

[6] = test system: ragweed (common ragweed, Ambrosia elatior); experiment: Test B pre-/postemergence plant response
Method in brief: as §2

[7] = test system: galium (catchweed bedstraw, Galium aparine); experiment: Test B pre-/postemergence plant response; settings: Preemergence
Method in brief: as §2

[8] = test system: bermudagrass (Cynodon dactylon); experiment: Test B pre-/postemergence plant response
Method in brief: as §2

[9] = test system: sunflower (common oilseed sunflower, Helianthus annuus); experiment: Test B pre-/postemergence plant response; settings: Preemergence
Method in brief: as §2

[10] = test system: lambsquarters (Chenopodium album); experiment: Test B pre-/postemergence plant response
Method in brief: as §2

[11] = test system: pigweed (Amaranthus retroflexus); experiment: Test B pre-/postemergence plant response
Method in brief: as §2

[12] = test system: wheat (Triticum aestivum); experiment: Test B pre-/postemergence plant response
Method in brief: as §2

[13] = test system: Italian ryegrass (Lolium multiflorum); experiment: Test B pre-/postemergence plant response
Method in brief: as §2

[14] = 31 g ai/ha, postemergence, scale 0 to 100, 0 is no effect, 100 is complete control
[15] = Postemergence, 62 g ai/ha, scale 0 (no effect) to 100 (complete control), 13 to 15 days
[16] = Postemergence, 125 g ai/ha, visual rating after 13 to 15 days, scale 0 (no effect) to 100 (complete control)
[17] = Postemergence, 250 g ai/ha, scale 0 to 100 (0 no effect, 100 complete control)
[18] = 31 g ai/ha, scale 0 to 100 (0 no effect, 100 complete control)
[19] = 62 g ai/ha, scale 0 to 100, 0 no effect, 100 complete control
[20] = 125 g ai/ha, scale 0 to 100, 0 no effect, 100 complete control
[21] = Preemergence, 31 g ai/ha, scale 0 to 100 (0 no effect, 100 complete control)
[22] = Preemergence, 62 g ai/ha, scale 0 to 100, 0 no effect, 100 complete control
[23] = Preemergence, 125 g ai/ha, scale 0 to 100, 0 no effect, 100 complete control
[24] = 250 g ai/ha, Preemergence, 0 to 100 scale

Cc1cccc(-n2c(-c3ccccc3)ncc(C(=O)C3=C(O)CCCC3=O)c2=O)c1F [Compound 58]
Plant response rating, Barley [1, 14]: 5 | Plant response rating, Barley [1, 15]: 5 | Plant response rating, Barley [1, 16]: 5 | Plant response rating, Barley [1, 17]: 10 | Plant response rating, Canarygrass [2, 14]: 60 | Plant response rating, Canarygrass [2, 15]: 60 | Plant response rating, Canarygrass [2, 16]: 80 | Plant response rating, Canarygrass [2, 17]: 85 | Plant response rating, Chickweed [3, 14]: 70 | Plant response rating, Chickweed [3, 15]: 80 | Plant response rating, Chickweed [3, 16]: 90 | Plant response rating, Chickweed [3, 17]: 90 | Plant response rating, Windgrass [4, 14]: 35 | Plant response rating, Windgrass [4, 15]: 50 | Plant response rating, Windgrass [4, 16]: 60 | Plant response rating, Windgrass [4, 17]: 70 | Plant response rating, Nightshade [5, 18]: 90 | Plant response rating, Nightshade [5, 19]: 98 | Plant response rating, Nightshade [5, 20]: 98 | Plant response rating, Ragweed [6, 14]: 80 | Plant response rating, Ragweed [6, 15]: 85 | Plant response rating, Ragweed [6, 16]: 90 | Plant response rating, Ragweed [6, 17]: 98 | Plant response rating, Ragweed [6, 21]: 20 | Plant response rating, Ragweed [6, 22]: 75 | Plant response rating, Ragweed [6, 23]: 85 | Plant response rating, Galium ([7]; 250 g ai/ha, 0 to 100 scale): 80 | Plant response rating, Galium [7, 18]: 0 | Plant response rating, Galium [7, 19]: 0 | Plant response rating, Galium [7, 20]: 30 | Plant response rating, Bermudagrass [8, 14]: 85 | Plant response rating, Bermudagrass [8, 24]: 100 | Plant response rating, Bermudagrass [8, 15]: 85 | Plant response rating, Bermudagrass [8, 16]: 98 | Plant response rating, Bermudagrass [8, 17]: 100 | Plant response rating, Bermudagrass [8, 21]: 98 | Plant response rating, Bermudagrass [8, 22]: 98 | Plant response rating, Bermudagrass [8, 23]: 100 | Plant response rating, Sunflower [9, 18]: 0 | Plant response rating, Sunflower [9, 19]: 55 | Plant response rating, Sunflower [9, 20]: 65 | Plant response rating, Lambsquarters [10, 14]: 95 | Plant response rating, Lambsquarters [10, 24]: 98 | Plant response rating, Lambsquarters [10, 15]: 95 | Plant response rating, Lambsquarters [10, 16]: 100 | Plant response rating, Lambsquarters [10, 17]: 100 | Plant response rating, Lambsquarters [10, 21]: 85 | Plant response rating, Lambsquarters [10, 22]: 98 | Plant response rating, Lambsquarters [10, 23]: 98 | Plant response rating, Pigweed [11, 14]: 80 | Plant response rating, Pigweed [11, 15]: 95 | Plant response rating, Pigweed [11, 16]: 98 | Plant response rating, Pigweed [11, 17]: 100 | Plant response rating, Pigweed [11, 21]: 85 | Plant response rating, Pigweed [11, 22]: 98 | Plant response rating, Pigweed [11, 23]: 100 | Plant response rating, Wheat [12, 14]: 0 | Plant response rating, Wheat [12, 15]: 0 | Plant response rating, Wheat [12, 16]: 0 | Plant response rating, Wheat [12, 17]: 0 | Plant response rating, Wheat [12, 21]: 0 | Plant response rating, Wheat [12, 22]: 0 | Plant response rating, Wheat [12, 23]: 0 | Plant response rating, Ryegrass, Italian [13, 14]: 0 | Plant response rating, Ryegrass, Italian [13, 15]: 0 | Plant response rating, Ryegrass, Italian [13, 16]: 30 | Plant response rating, Ryegrass, Italian [13, 17]: 70 | Plant response rating, Ryegrass, Italian [13, 21]: 0 | Plant response rating, Ryegrass, Italian [13, 22]: 0 | Plant response rating, Ryegrass, Italian [13, 23]: 0

CCCCc1ncc(C(=O)C2=C(O)CCCC2=O)c(=O)n1-c1ccccc1C [Compound 62]
Plant response rating, Barley [1, 14]: 0 | Plant response rating, Barley [1, 15]: 5 | Plant response rating, Barley [1, 16]: 5 | Plant response rating, Barley [1, 17]: 30 | Plant response rating, Canarygrass [2, 14]: 0 | Plant response rating, Canarygrass [2, 15]: 0 | Plant response rating, Canarygrass [2, 16]: 0 | Plant response rating, Canarygrass [2, 17]: 5 | Plant response rating, Chickweed [3, 14]: 70 | Plant response rating, Chickweed [3, 15]: 70 | Plant response rating, Chickweed [3, 16]: 75 | Plant response rating, Chickweed [3, 17]: 80 | Plant response rating, Windgrass [4, 14]: 30 | Plant response rating, Windgrass [4, 15]: 35 | Plant response rating, Windgrass [4, 16]: 35 | Plant response rating, Windgrass [4, 17]: 50 | Plant response rating, Nightshade [5, 18]: 10 | Plant response rating, Nightshade [5, 19]: 95 | Plant response rating, Nightshade [5, 20]: 98 | Plant response rating, Ragweed [6, 14]: 70 | Plant response rating, Ragweed [6, 15]: 75 | Plant response rating, Ragweed [6, 16]: 75 | Plant response rating, Ragweed [6, 17]: 80 | Plant response rating, Ragweed [6, 21]: 0 | Plant response rating, Ragweed [6, 22]: 20 | Plant response rating, Ragweed [6, 23]: 45 | Plant response rating, Galium ([7]; 250 g ai/ha, 0 to 100 scale): 0 | Plant response rating, Galium [7, 18]: 0 | Plant response rating, Galium [7, 19]: 0 | Plant response rating, Galium [7, 20]: 0 | Plant response rating, Bermudagrass [8, 24]: 100 | Plant response rating, Bermudagrass [8, 15]: 80 | Plant response rating, Bermudagrass [8, 16]: 85 | Plant response rating, Bermudagrass [8, 17]: 90 | Plant response rating, Bermudagrass [8, 21]: 20 | Plant response rating, Bermudagrass [8, 22]: 75 | Plant response rating, Bermudagrass [8, 23]: 95 | Plant response rating, Sunflower [9, 18]: 0 | Plant response rating, Sunflower [9, 19]: 10 | Plant response rating, Sunflower [9, 20]: 10 | Plant response rating, Lambsquarters [10, 14]: 85 | Plant response rating, Lambsquarters [10, 24]: 100 | Plant response rating, Lambsquarters [10, 15]: 95 | Plant response rating, Lambsquarters [10, 16]: 98 | Plant response rating, Lambsquarters [10, 17]: 100 | Plant response rating, Lambsquarters [10, 21]: 98 | Plant response rating, Lambsquarters [10, 22]: 98 | Plant response rating, Lambsquarters [10, 23]: 100 | Plant response rating, Pigweed [11, 14]: 98 | Plant response rating, Pigweed [11, 15]: 98 | Plant response rating, Pigweed [11, 16]: 100 | Plant response rating, Pigweed [11, 17]: 100 | Plant response rating, Pigweed [11, 21]: 45 | Plant response rating, Pigweed [11, 22]: 98 | Plant response rating, Pigweed [11, 23]: 100 | Plant response rating, Wheat [12, 14]: 0 | Plant response rating, Wheat [12, 15]: 0 | Plant response rating, Wheat [12, 16]: 5 | Plant response rating, Wheat [12, 17]: 30 | Plant response rating, Wheat [12, 21]: 0 | Plant response rating, Wheat [12, 22]: 0 | Plant response rating, Wheat [12, 23]: 0 | Plant response rating, Ryegrass, Italian [13, 14]: 0 | Plant response rating, Ryegrass, Italian [13, 15]: 5 | Plant response rating, Ryegrass, Italian [13, 16]: 50 | Plant response rating, Ryegrass, Italian [13, 17]: 50 | Plant response rating, Ryegrass, Italian [13, 21]: 0 | Plant response rating, Ryegrass, Italian [13, 22]: 0 | Plant response rating, Ryegrass, Italian [13, 23]: 0
